According to patent US20050101595A1, “N-containing cycloalkyl-substituted amino-thiazole derivatives and pharmaceutical compositions for inhibiting cell proliferation and methods for their use” (PFIZER INC., priority 2003, published 2005):
Like-named read-outs stand apart in the source and are kept apart here.

Tests used:
[1] = biological target: CDK2/Cyclin A (Homo sapiens, UniProt P24941); assay: Inhibition of CDK2/Cyclin A Retinoblastoma Kinase Activity; assay type: biochemical; conditions: for Ki: apparent Ki, CDK2/proteolyzed cyclin A, Rb fragment substrate, 25 μM ATP
Method in brief: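 Radiometric filter-binding readout of phosphate transfer to an Rb substrate fragment by purified CDK2/truncated cyclin A at 10 or 19 nM. Run at pH 7.4 with 25 μM ATP, 30 °C, 60–75 min, linear rates; background without enzyme subtracted, Ki from competitive-inhibition models.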

[2] = system: HCT-116 cell line; assay: Inhibition of cell growth, tetrazolium salt (MTT) assay; assay type: cell-based; conditions: for IC50: Homo sapiens, HCT-116, 120 h, MTT, three to five days, read-out: HCT-116 IC50; for HCT-116 % Inhibition at 0.25 μM: 0.25 μM compound
Method in brief: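 Growth inhibition by MTT reduction at 540 nm (0.2 mg/mL, 4 h at 37° C, formazan dissolved in DMSO), normalized to cells given only 0.5% v/v DMSO. HCT-116 cultures in McCoy's 5A were dosed 4 h post-plating and kept three to five days at 37° C, 5% CO2.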

[3] = biological target: human CDK4 and genetically truncated (1-264) cyclin D3 (Homo sapiens, UniProt P11802); assay: Inhibition of CDK4/Cyclin D Retinoblastoma Kinase Activity; assay type: biochemical; conditions: for Ki: apparent Ki, CDK4/truncated cyclin D3, Rb fragment substrate, 25 μM ATP
Method in brief: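 Apparent Ki values come from competitive or competitive tight-binding inhibition fits of background-corrected 32P/33P incorporation into His-tagged Rb fragment (386-928), captured on nitrocellulose. Reaction: 5 nM insect-cell-expressed human CDK4 with cyclin D3 (1-264), 25 μM ATP, pH 7.4 HEPES, 2% DMSO, 30° C., 20 min, extended to 60 min for tight-binding inhibitors.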

[4] = 0.1 μM compound, HCT-116, Table 3
[5] = 0.1 μM compound, HCT-116, Table 4

Sequence of human CDK4 and genetically truncated (1-264) cyclin D3 (P11802 whole entry, the tested form may be a part): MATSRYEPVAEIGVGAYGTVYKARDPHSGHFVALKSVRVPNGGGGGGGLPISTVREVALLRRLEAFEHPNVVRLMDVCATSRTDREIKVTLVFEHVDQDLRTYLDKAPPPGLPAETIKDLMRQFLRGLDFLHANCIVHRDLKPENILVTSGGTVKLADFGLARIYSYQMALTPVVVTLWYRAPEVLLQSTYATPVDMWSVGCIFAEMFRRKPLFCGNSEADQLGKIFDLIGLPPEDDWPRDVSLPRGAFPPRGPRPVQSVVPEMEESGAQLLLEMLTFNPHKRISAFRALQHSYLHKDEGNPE
Sequence of human CDK4 and genetically truncated (1-264) cyclin D3 (P30281 1-264 partner): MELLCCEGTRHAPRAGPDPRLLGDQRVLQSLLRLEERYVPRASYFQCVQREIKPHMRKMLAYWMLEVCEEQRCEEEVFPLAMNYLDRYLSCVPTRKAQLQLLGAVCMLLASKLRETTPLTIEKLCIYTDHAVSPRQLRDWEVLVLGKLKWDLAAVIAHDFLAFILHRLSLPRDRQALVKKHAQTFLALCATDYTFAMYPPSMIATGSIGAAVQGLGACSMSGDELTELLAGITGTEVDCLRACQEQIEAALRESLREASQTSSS

## CCOc1ccccc1C(=O)N1CCC(Nc2nc(N)c(C(=O)c3c(F)cccc3F)s2)CC1 [Example R119]
[1]; at 0.03 μM
  CDK2 % Inhibition at 0.03 μM: 27%
[2]; HCT-116 cells, at 0.1 μM
  HCT-116 % Inhibition at 0.1 μM: 3%
[2]; HCT-116 cells
  HCT-116 5 Inhibition at 0.25 μM: 53
[3]; at 0.03 μM
  CDK4 % Inhibition at 0.03 μM: 31%

## Nc1nc(NC2CCN(S(=O)(=O)c3cccnc3)CC2)sc1C(=O)c1c(F)cccc1F [Example F23, 1-{4-Amino-2-[1-(pyridine-3-sulfonyl)-piperidin-4-ylamino]-thiazol-5-yl}-1-(2,6-difluoro-phenyl)-methanone]
[1]
  Ki: 2.8 nM
[2]; first HCT-116 column (c4)
  IC50: 130 nM
[2]; second HCT-116 column (c5)
  IC50: 300 nM
[3]
  Ki: 4.8 nM

## Cc1ccc2cc(S(=O)(=O)N3CCC(Nc4nc(N)c(C(=O)c5c(F)cccc5F)s4)CC3)ccc2c1 [Example P88]
[1]; 0.03 μM compound, Table 3
  CDK2 % Inhibition at 0.03 μM: 44%
[2]; [4]
  HCT-116 % Inhibition at 0.1 μM: 7%
[2]; HCT-116, Table 3
  HCT-116 % Inhibition at 0.25 μM: 34%
[3]; 0.03 μM compound, Table 3
  CDK4 % Inhibition at 0.03 μM: 49%

## CCN1CCN(CCCS(=O)(=O)N2CCC(Nc3nc(N)c(C(=O)c4c(F)cccc4F)s3)CC2)CC1 [Example K15, 1-(4-Amino-2-{1-[3-(4-ethylpiperazin-1-yl)propane-1-sulfonyl]-piperidin-4-ylamino}-thiazol-5-yl)-1-(2,6-difluoro-phenyl)-methanone.]
[1]
  Ki: 8.7 nM
[2]; first HCT-116 column (c4)
  IC50: 1300 nM
[2]; second HCT-116 column (c5)
  IC50: 5000 nM
[3]
  Ki: 2.5 nM

## Nc1nc(NC2CCN(C(=O)CCCC3CCCCC3)CC2)sc1C(=O)c1c(F)cccc1F [Example R102]
[1]; at 0.03 μM
  CDK2 % Inhibition at 0.03 μM: 18%
[2]; HCT-116 cells, at 0.1 μM
  HCT-116 % Inhibition at 0.1 μM: 0%
[2]; HCT-116 cells
  HCT-116 5 Inhibition at 0.25 μM: 43
[3]; at 0.03 μM
  CDK4 % Inhibition at 0.03 μM: 34%

## COc1ccc(S(=O)(=O)N2CCC(Nc3nc(N)c(C(=O)c4c(F)cccc4F)s3)CC2)cc1 [Example P20]
[1]; 0.03 μM compound, Table 3
  CDK2 % Inhibition at 0.03 μM: 78%
[2]; [4]
  HCT-116 % Inhibition at 0.1 μM: 23%
[2]; HCT-116, Table 3
  HCT-116 % Inhibition at 0.25 μM: 43%
[3]; 0.03 μM compound, Table 3
  CDK4 % Inhibition at 0.03 μM: 76%

## CN1CC[C@H](c2ccc(S(=O)(=O)N3CCC(Nc4nc(N)c(C(=O)c5c(F)cccc5F)s4)CC3)cc2)C1 [Example F52, (4-Amino-2-{1-[4-(1-methyl-pyrrolidin-3R-yl)-benzenesulfonyl]-piperidin-4-ylamino}-thiazol-5-yl)-(2,6-difluoro-phenyl)-methanone]
[1]
  Ki: 1 nM
[2]; first HCT-116 column (c4)
  IC50: 93 nM
[2]; second HCT-116 column (c5)
  IC50: 500 nM
[3]
  Ki: 0.52 nM

## COC(=O)C(=O)N1CCC(Nc2nc(N)c(C(=O)c3c(F)cccc3F)s2)CC1 [Example Q38]
[1]; 0.03 μM compound, Table 4
  CDK2 % Inhibition at 0.03 μM: −12%
[2]; [5]
  HCT-116 % Inhibition at 0.1 μM: 0%
[2]; HCT-116, Table 4
  HCT-116 % Inhibition at 0.25 μM: 21%
[3]; 0.03 μM compound, Table 4
  CDK4 % Inhibition at 0.03 μM: 16%

## Nc1nc(NC2CCN(C(=O)c3ccc(Cl)c(Cl)c3)CC2)sc1C(=O)c1c(F)cccc1F [Example Q20]
[1]; 0.03 μM compound, Table 4
  CDK2 % Inhibition at 0.03 μM: 33%
[2]; [5]
  HCT-116 % Inhibition at 0.1 μM: 28%
[2]; HCT-116, Table 4
  HCT-116 % Inhibition at 0.25 μM: 69%
[3]; 0.03 μM compound, Table 4
  CDK4 % Inhibition at 0.03 μM: 74%

## COc1ccc(Cl)cc1S(=O)(=O)N1CCC(Nc2nc(N)c(C(=O)c3c(F)cccc3F)s2)CC1 [Example P56]
[1]; 0.03 μM compound, Table 3
  CDK2 % Inhibition at 0.03 μM: 21%
[2]; [4]
  HCT-116 % Inhibition at 0.1 μM: 20%
[2]; HCT-116, Table 3
  HCT-116 % Inhibition at 0.25 μM: 34%
[3]; 0.03 μM compound, Table 3
  CDK4 % Inhibition at 0.03 μM: 26%

## Nc1nc(NC2CCN(S(=O)(=O)c3ccc(I)cc3)CC2)sc1C(=O)c1c(F)cccc1F [Example P16]
[1]; 0.03 μM compound, Table 3
  CDK2 % Inhibition at 0.03 μM: 71%
[2]; [4]
  HCT-116 % Inhibition at 0.1 μM: 34%
[2]; HCT-116, Table 3
  HCT-116 % Inhibition at 0.25 μM: 35%
[3]; 0.03 μM compound, Table 3
  CDK4 % Inhibition at 0.03 μM: 67%

## Nc1nc(NC2CCN(S(=O)(=O)CCNCc3cccc(F)c3F)CC2)sc1C(=O)c1c(F)cccc1F [Example K45, (4-Amino-2-{1-[2-(2,3-difluoro-benzylamino)-ethanesulfonyl]-piperidin-4-ylamino}-thiazol-5-yl)-(2,6-difluoro-phenyl)-methanone]
[1]
  Ki: 0.82 nM
[2]; first HCT-116 column (c4)
  IC50: 50 nM
[2]; second HCT-116 column (c5)
  IC50: 170 nM
[3]
  Ki: 1 nM
